Measured values reported in PubChem BioAssay (NCI).
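Five concentrations, 48 hours, 96-well plates. GI50 is the concentration that inhibits growth by half. TGI denotes the concentration required for complete inhibition of growth.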

Legend:
Assay in all cases: NCI-60 cell line screen, 48 h
[1] = system: CCRF-CEM leukemia
[2] = system: HOP-92 NSCLC
[3] = system: HT29 colon
[4] = system: M14 melanoma
[5] = system: OVCAR-3 ovarian
[6] = system: RXF 393 renal
[7] = system: SF-295 CNS
[8] = system: SNB-19 CNS
[9] = system: SW-620 colon
[10] = system: MALME-3M melanoma

| Compound | TGI [1] [µM] | TGI [2] [µM] | TGI [3] [µM] | TGI [4] [µM] | TGI [5] [µM] | TGI [6] [µM] | TGI [7] [µM] | TGI [8] [µM] | TGI [9] [µM] | GI50 [3] [µM] | GI50 [5] [µM] | GI50 [6] [µM] | GI50 [7] [µM] | GI50 [8] [µM] | GI50 [9] [µM] | TGI [10] [µM] | GI50 [1] [µM] | GI50 [2] [µM] | GI50 [4] [µM] | GI50 [10] [µM] |
| --- | --- | --- | --- | --- | --- | --- | --- | --- | --- | --- | --- | --- | --- | --- | --- | --- | --- | --- | --- | --- |
| COc1ccc2c(c1O)C(=O)C(CCC(=O)O)CC2 (stereo unspecified) | > 100 | > 100 | > 100 | > 100 | > 100 | > 100 | > 100 | > 100 | > 100 | – | – | – | – | – | – | – | – | – | – | – |
| COc1c2c3ccccc3nc-2n(C)c2ccccc12 | – | – | > 100 | – | > 100 | 78.1 | > 100 | > 100 | > 100 | 4.75 | 21 | 21.3 | 20.8 | 17.1 | 7.97 | – | – | – | – | – |
| Nc1nc(Cl)cc(NCCCCCNc2cc(Cl)nc(N)n2)n1 | > 100 | > 100 | > 100 | > 100 | > 100 | > 100 | > 100 | > 100 | > 100 | – | – | – | – | – | – | – | – | – | – | – |
| C=CCCOC(=O)CO[N+](=O)[O-] | > 100 | – | > 100 | > 100 | > 100 | > 100 | > 100 | > 100 | > 100 | – | – | – | – | – | – | > 100 | – | – | – | – |
| COc1ccc(CCN2CCCN3C2=Nc2ccccc2S3(=O)=O)cc1 | > 100 | 13.4 | 17.5 | > 100 | – | > 100 | > 100 | > 100 | > 100 | 0.323 | – | 0.622 | 0.389 | 0.882 | 0.381 | – | 0.444 | 0.348 | 0.322 | – |
| O=C(NCCc1ccccc1)C(c1ccccc1)(c1ccccc1)c1ccccc1 | > 100 | > 100 | – | – | > 100 | – | 9.36 | > 100 | > 100 | – | 5.78 | – | 2.51 | 7.27 | 4.35 | – | 40 | > 100 | – | – |
| COc1ccc(/C=C/C(=O)C(C)(C)CN2CCCCC2)cc1 | 60.6 | – | 33 | 32.2 | 34.5 | 38 | 97.5 | > 100 | 14.2 | – | – | – | – | – | – | 79.8 | – | – | – | – |
| CC(/C=C/C(=O)c1sc(-n2nc(-c3ccccc3)cc2-c2ccccc2)nc1C)=C\c1ccccc1 | > 100 | – | – | > 100 | > 100 | > 100 | > 100 | > 100 | > 100 | – | – | > 100 | > 100 | – | > 100 | > 100 | – | – | > 100 | – |
| CCOc1cc2ccc3c4cc(OC)c(OC)cc4cnc3c2cc1OCC | > 100 | – | > 100 | > 100 | > 100 | – | > 100 | > 100 | > 100 | – | – | – | – | – | – | > 100 | – | – | – | – |
| O=C(Cc1nc2ccccc2s1)Nc1ccc(Cl)cc1 | > 100 | – | > 100 | > 100 | > 100 | > 100 | > 100 | > 100 | > 100 | – | – | – | – | – | – | > 100 | – | – | – | – |
| COC(=O)NC1(NC(=O)OC)NC(=O)c2cc(OC)c(OC)cc2N1 | 55.3 | – | – | > 100 | 67.6 | – | > 100 | > 100 | > 100 | – | – | – | – | – | – | – | – | – | – | – |
| CCSC(SCC)c1cc2c(cc1Br)OCO2 | 62.4 | 55.3 | 44.8 | 56.2 | 57.3 | 89.3 | 72.1 | > 100 | > 100 | – | – | – | – | – | – | – | – | – | – | – |
| COc1cc(OC)c2ssc3c(OC)cc(OC)c4ssc1c2-c43 | > 100 | – | > 100 | > 100 | > 100 | > 100 | > 100 | > 100 | > 100 | – | – | – | – | – | – | > 100 | – | – | – | – |
| Sc1ccc2ccccc2c1CNCc1ccccc1 | 54.1 | – | > 100 | 27.6 | 31.4 | 26 | 47.3 | > 100 | > 100 | – | – | – | – | – | – | 78.5 | – | – | – | – |
| O=Cc1ccc(-c2ccc(-c3nc4ccccc4[nH]3)cc2)s1 | 38.9 | 28.1 | > 100 | 43.2 | 54.1 | 57.8 | 55.5 | – | > 100 | 38.9 | 20.9 | 22.7 | 18.6 | – | 59.4 | – | 14 | 0.152 | 18.2 | – |
| CCOC(=O)Cc1nc2ccccc2s1 | 72.8 | – | 37.1 | 31 | > 10 | 35.3 | 32.2 | > 100 | 34.3 | – | – | – | – | – | – | 31.2 | – | – | – | – |
| COC(=O)C(Cc1cnc[nH]1)NC(=O)CNC(=O)CCCn1c(=O)c2c3ccccc3n(C)c2n2nnc(-c3ccccc3)c12 (stereo unspecified) | > 100 | – | > 100 | > 100 | > 100 | > 100 | > 100 | > 100 | > 100 | > 100 | > 100 | > 100 | > 100 | > 100 | > 100 | > 100 | > 100 | – | > 100 | > 100 |
